Laboratory results published in US11976059B2 (KOREA RESEARCH INSTITUTE OF CHEMICAL TECHNOLOGY, priority 2018, dated 2024).
pIC50: −log10 of the molar value.

target: EGFR L858R/T790M/C797S mutant enzyme (Homo sapiens (Human), UniProt P00533, C797S/L858R/T790M); experiment: EGFR mutant enzyme inhibition, HTRF system (Cisbio); assay type: biochemical; details: ATP 1 mM, 37° C. for 2 hours
Method: In order to evaluate the inhibitory activity of the compound represented by formula 1 according to the present invention against EGFR mutation, the following experiment was performed.
The activity of the compound of the present invention against EGFR mutant enzyme was measured using the HTRF system of Cisbio Co. As an EGFR L858R/T790M/C797S mutant enzyme, a protein provided by SignalChem was purchased and used as an enzyme source.
The composition of the assay buffer used for the activity measurement was as follows: 50 mM Tris-HCl (pH 7.5), 100 mM NaCl, 7.5 mM MgCl2, 3 mM KCl, 0.01% Tween 20, 0.1% BSA, and 1 mM DTT. Herein, an enzyme reaction was performed using a peptide substrate labeled with ATP at the concentration of 1 mM and biotin at the concentration of 0.5 μM. The analysis of the EGFR activity inhibitory effect of the compound was performed according to the following analytical reaction recipe.
Component 1: 4 μl of EGFR mutant enzyme
Component 2: 2 μl of compound solution
Component 3: 4 μl of ATP and biotin-labeled peptide mixture
The enzyme reaction was initiated by mixing the component 1 and the component 2 first and then adding the component 3 thereto. After reacting the mixture at 37° C. for 2 hours, 10 μl of a measurement solution consisting of streptavidin-XL665 and europium-labeled anti-phosphotyrosine antibody provided by Cisbio was added to the enzyme reaction solution, followed by reaction at room temperature for 1 hour. Finally, the ratio of the fluorescence values at 615 nm and 665 nm was calculated using Envision equipment of Perkin-Elmer to quantitatively measure the enzyme activity and confirm the inhibitory ability of the compound. The values measured at 7 concentrations of the compound were analyzed using Prism program (version 5.01, Graphpad Software, Inc.), and the IC50 value, an index of the inhibitory ability of the compound, was calculated.

Sequence of EGFR L858R/T790M/C797S mutant enzyme (P00533 25-1210 T790M/C797S/L858R): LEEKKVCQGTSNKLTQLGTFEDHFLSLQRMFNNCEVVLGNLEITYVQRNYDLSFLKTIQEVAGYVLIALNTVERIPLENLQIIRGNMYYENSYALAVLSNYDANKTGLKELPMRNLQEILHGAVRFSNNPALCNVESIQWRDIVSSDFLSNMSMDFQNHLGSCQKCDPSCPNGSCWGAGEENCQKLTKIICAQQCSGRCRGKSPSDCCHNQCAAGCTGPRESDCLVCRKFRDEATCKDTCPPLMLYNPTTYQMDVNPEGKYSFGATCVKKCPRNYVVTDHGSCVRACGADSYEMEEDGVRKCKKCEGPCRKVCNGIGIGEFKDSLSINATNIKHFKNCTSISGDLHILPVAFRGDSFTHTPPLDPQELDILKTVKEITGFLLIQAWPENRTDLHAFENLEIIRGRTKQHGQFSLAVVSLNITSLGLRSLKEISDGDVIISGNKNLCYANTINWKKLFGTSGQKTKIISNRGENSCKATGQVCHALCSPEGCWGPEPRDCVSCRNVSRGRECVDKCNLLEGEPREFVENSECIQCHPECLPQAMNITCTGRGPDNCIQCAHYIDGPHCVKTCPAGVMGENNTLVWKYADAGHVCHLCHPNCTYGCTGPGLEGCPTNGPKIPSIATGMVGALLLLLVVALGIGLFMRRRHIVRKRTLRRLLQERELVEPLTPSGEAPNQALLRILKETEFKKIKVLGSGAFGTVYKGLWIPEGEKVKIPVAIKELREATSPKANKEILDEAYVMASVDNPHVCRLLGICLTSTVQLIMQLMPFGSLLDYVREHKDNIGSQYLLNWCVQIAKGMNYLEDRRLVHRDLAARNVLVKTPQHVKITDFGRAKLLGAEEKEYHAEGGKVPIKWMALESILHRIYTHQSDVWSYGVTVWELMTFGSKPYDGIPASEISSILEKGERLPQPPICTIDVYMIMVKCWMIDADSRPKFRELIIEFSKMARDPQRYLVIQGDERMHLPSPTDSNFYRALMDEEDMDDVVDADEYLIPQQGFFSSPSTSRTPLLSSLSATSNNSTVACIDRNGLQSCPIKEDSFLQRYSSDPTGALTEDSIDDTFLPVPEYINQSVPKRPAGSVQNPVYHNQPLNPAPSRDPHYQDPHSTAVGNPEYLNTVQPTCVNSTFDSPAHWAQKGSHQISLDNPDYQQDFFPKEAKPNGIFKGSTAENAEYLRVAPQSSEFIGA

SMILES | pIC50
O=C1c2cc(-c3ccc(N4CCOCC4)cc3)ccc2CN1C(c1nc2ccccc2[nH]1)c1cc(Cl)ccc1O (centres unmarked) [Example 40, 2-((1H-benzo[d]imidazole-2-yl)(5-chloro-2-hydroxyphenyl)methyl)-6-(4-morpholinophenyl)isoindolin-1-one] | 6.43
O=C1c2cc(-c3ccc(-c4ccncc4)cc3)ccc2CN1C(c1nc2ccccc2[nH]1)c1cc(F)ccc1O (centres unmarked) [Example 41, 2-((1H-benzo[d]imidazole-2-yl)(5-fluoro-2-hydroxyphenyl)methyl)-6-(4-(pyridine-4-yl)phenyl)isoindolin-1-one] | 6.66
O=C1c2cc(-c3ccc(-c4ccncc4)cc3)ccc2CN1C(c1nc2ccccc2[nH]1)c1cc(Cl)ccc1O (centres unmarked) [Example 42, 2-((1H-benzo[d]imidazole-2-yl)(5-chloro-2-hydroxyphenyl)methyl)-6-(4-(pyridine-4-yl)phenyl)isoindolin-1-one] | 6.35
O=C1c2cc(-c3ccc(N4CCOCC4)cc3)ccc2CN1[C@@H](c1cc2ccccc2[nH]1)c1cc(F)ccc1O [Example 45, (R)-2-((5-fluoro-2-hydroxyphenyl)(1H-indole-2-yl)methyl)-6-(4-morpholinophenyl)isoindolin-1-one] | 6.55
O=C1c2cc(-c3ccc(-c4ccncc4)cc3)ccc2CN1[C@@H](c1cc2ccccc2[nH]1)c1cc(F)ccc1O [Example 47, (R)-2-((5-fluoro-2-hydroxyphenyl)(1H-indole-2-yl)methyl)-6-(4-(pyridine-4-yl)phenyl)isoindolin-1-one] | 7.07
O=C1c2cc(-c3ccc(-c4ccncc4)cc3)ccc2CN1[C@@H](c1cc2ccccc2[nH]1)c1cc(Cl)ccc1O [Example 48, (R)-2-((5-chloro-2-hydroxyphenyl)(1H-indole-2-yl)methyl)-6-(4-(pyridine-4-yl)phenyl)isoindolin-1-one] | < 5.00
O=C1c2cc(-c3ccc(N4CCNCC4)cc3)ccc2CN1[C@@H](c1cc2cccnc2[nH]1)c1cc(F)ccc1O [Example 49, (R)-2-((5-fluoro-2-hydroxyphenyl)(1H-pyrrolo[2,3-b]pyridine-2-yl)methyl)-6-(4-(piperazine-4-yl)phenyl)isoindolin-1-one] | 7.16
O=C1c2cc(-c3ccc(N4CCNCC4)cc3)ccc2CN1[C@@H](c1cc2cccnc2[nH]1)c1cc(Cl)ccc1O [Example 50, (R)-2-((5-chloro-2-hydroxyphenyl)(1H-pyrrolo[2,3-b]pyridine-2-yl)methyl)-6-(4-(piperazine-4-yl)phenyl)isoindolin-1-one] | 6.38
O=C1c2cc(-c3ccc(N4CCNCC4)cc3)ccc2CN1[C@@H](c1cc2cc(F)ccc2[nH]1)c1cc(F)ccc1O [Example 51, (R)-2-((5-fluoro-1H-indole-2-yl)(5-fluoro-2-hydroxyphenyl)methyl)-6-(4-(piperazine-1-yl)phenyl)isoindolin-1-one] | 6.19
O=C1c2cc(-c3ccc(C4=CCNCC4)cc3)ccc2CN1[C@@H](c1cc2cc(F)ccc2[nH]1)c1cc(F)ccc1O [Example 52, (R)-2-((5-fluoro-1H-indole-2-yl)(5-fluoro-2-hydroxyphenyl)methyl)-6-(4-(1,2,3,6-tetrahydropyridine-4-yl)phenyl)isoindolin-1-one] | < 5.00
O=C1c2cc(-c3ccc(N4CCNCC4)cc3)ccc2CN1[C@H](c1cc2ccccc2[nH]1)c1cc(F)ccc1O [Example 53, (S)-2-((5-fluoro-2-hydroxyphenyl)(1H-indole-2-yl)methyl)-6-(4-(piperazine-1-yl)phenyl)isoindolin-1-one] | 6.92
CN(C)C1CCN(c2ccc(-c3ccc4c(c3)C(=O)N([C@@H](c3cc5ccccc5[nH]3)c3cc(F)ccc3O)C4)cc2)CC1 [Example 61, (R)-6-(4-(4-(dimethylamino)piperidine-1-yl)phenyl)-2-((5-fluoro-2-hydroxyphenyl)(1H-indole-2-yl)methyl)-isoindolin-1-one] | 7.18

Further lines, results first:

pIC50 | SMILES
6.68 | CN1CCN(c2ccc(-c3ccc4c(c3)C(=O)N([C@@H](c3cc5ccccc5[nH]3)c3cc(F)ccc3O)C4)cc2)CC1 [Example 43, (R)-2-((5-fluoro-2-hydroxyphenyl)(1H-indole-2-yl)methyl)-6-(4-(4-methylpiperazine-1-yl)phenyl)isoindolin-1-one]
6.72 | CN1CCN(c2ccc(-c3ccc4c(c3)C(=O)N([C@@H](c3cc5ccccc5[nH]3)c3cc(Cl)ccc3O)C4)cc2)CC1 [Example 44, (R)-2-((5-chloro-2-hydroxyphenyl)(1H-indole-2-yl)methyl)-6-(4-(4-methylpiperazine-1-yl)phenyl)isoindolin-1-one]
6.96 | O=C1c2cc(-c3ccc(N4CCOCC4)cc3)ccc2CN1[C@@H](c1cc2ccccc2[nH]1)c1cc(Cl)ccc1O [Example 46, (R)-2-((5-chloro-2-hydroxyphenyl)(1H-indole-2-yl)methyl)-6-(4-morpholinophenyl)isoindolin-1-one]
6.62 | CC(=O)N1CCN(c2ccc(-c3ccc4c(c3)C(=O)N([C@@H](c3cc5ccccc5[nH]3)c3cc(F)ccc3O)C4)cc2)CC1 [Example 54, (R)-6-(4-(4-acetylpiperazine-1-yl)phenyl)-2-((5-fluoro-2-hydroxyphenyl)(1H-indole-2-yl)methyl)-isoindolin-1-one]
7.40 | CN1CCN(C2CCN(c3ccc(-c4ccc5c(c4)C(=O)N([C@@H](c4cc6ccccc6[nH]4)c4cc(F)ccc4O)C5)cc3)CC2)CC1 [Example 57, (R)-2-((5-fluoro-2-hydroxyphenyl)(1H-indole-2-yl)methyl)-6-(4-(4-(4-methylpiperazine-1-yl)piperidine-1-yl)phenyl)isoindolin-1-one]
5.43 | CN1CCN(C2CCN(c3ccc(-c4ccc5c(c4)C(=O)N([C@@H](c4cc6ccccc6[nH]4)c4cc(Cl)ccc4O)C5)cc3)CC2)CC1 [Example 58, (R)-2-((5-chloro-2-hydroxyphenyl)(1H-indole-2-yl)methyl)-6-(4-(4-(4-methylpiperazine-1-yl)piperidine-1-yl)phenyl)isoindolin-1-one]
7.49 | O=C1c2cc(-c3ccc(N4CCC(N5CCNCC5)CC4)cc3)ccc2CN1[C@@H](c1cc2ccccc2[nH]1)c1cc(F)ccc1O [Example 59, (R)-2-((5-fluoro-2-hydroxyphenyl)(1H-indole-2-yl)methyl)-6-(4-(4-(piperazine-1-yl)piperidine-1-yl)phenyl)isoindolin-1-one]
6.72 | O=C1c2cc(-c3ccc(N4CCC(N5CCNCC5)CC4)cc3)ccc2CN1[C@@H](c1cc2ccccc2[nH]1)c1cc(Cl)ccc1O [Example 60, (R)-2-((5-chloro-2-hydroxyphenyl)(1H-indole-2-yl)methyl)-6-(4-(4-(piperazine-1-yl)piperidine-1-yl)phenyl)isoindolin-1-one]
5.66 | CN(C)C1CCN(c2ccc(-c3ccc4c(c3)C(=O)N([C@@H](c3cc5ccccc5[nH]3)c3cc(Cl)ccc3O)C4)cc2)CC1 [Example 62, (R)-2-((5-chloro-2-hydroxyphenyl)(1H-indole-2-yl)methyl)-6-(4-(4-(dimethylamino)piperidine-1-yl)phenyl)-isoindolin-1-one]
6.52 | O=C1c2cc(-c3ccc(N4CCN(C5CCNCC5)CC4)cc3)ccc2CN1[C@@H](c1cc2ccccc2[nH]1)c1cc(F)ccc1O [Example 63, (R)-2-((5-fluoro-2-hydroxyphenyl)(1H-indole-2-yl)methyl)-6-(4-(4-(piperidine-4-yl)piperazine-1-yl)phenyl)isoindolin-1-one]
6.59 | O=C1c2cc(-c3ccc(N4CCN(C5CCNCC5)CC4)cc3)ccc2CN1[C@@H](c1cc2ccccc2[nH]1)c1cc(Cl)ccc1O [Example 64, (R)-2-((5-chloro-2-hydroxyphenyl)(1H-indole-2-yl)methyl)-6-(4-(4-(piperidine-4-yl)piperazine-1-yl)phenyl)isoindolin-1-one]
7.30 | CN1CCC(N2CCN(c3ccc(-c4ccc5c(c4)C(=O)N([C@@H](c4cc6ccccc6[nH]4)c4cc(F)ccc4O)C5)cc3)CC2)CC1 [Example 65, (R)-2-((5-fluoro-2-hydroxyphenyl)(1H-indole-2-yl)methyl)-6-(4-(4-(1-methylpiperidine-4-yl)piperazine-1-yl)phenyl)isoindolin-1-one]
6.39 | CN1CCC(N2CCN(c3ccc(-c4ccc5c(c4)C(=O)N([C@@H](c4cc6ccccc6[nH]4)c4cc(Cl)ccc4O)C5)cc3)CC2)CC1 [Example 66, (R)-2-((5-chloro-2-hydroxyphenyl)(1H-indole-2-yl)methyl)-6-(4-(4-(1-methylpiperidine-4-yl)piperazine-1-yl)phenyl)isoindolin-1-one]
6.10 | O=C1c2cc(-c3ccc(N4CCCC4)cc3)ccc2CN1[C@@H](c1cc2ccccc2[nH]1)c1cc(F)ccc1O [Example 67, (R)-2-((5-fluoro-2-hydroxyphenyl)(1H-indole-2-yl)methyl)-6-(4-(pyrrolidine-1-yl)phenyl)isoindolin-1-one]
